According to patent US20210309595A1, “COMPOSITION FOR FORMING OPTICAL COMPONENT, OPTICAL COMPONENT, COMPOUND, AND RESIN” (Mitsubishi Gas Chemical Company, Inc., priority 2018, published 2021):

Columns and labels:
Type in all cases: physicochemical
[1] = Transparency (absorption coefficient) of optical component forming film; settings: absorption coefficient at wavelength 633 nm; 1000 nm film, baked 110° C. 60 seconds
Description: (§1) The compositions for forming optical components were each prepared so that the amount of the compound shown in the following table was 5% by mass in propylene glycol methyl ether. Next, a silicon substrate was spin coated with each of these compositions for forming an optical component, and then baked at 110° C. for 60 seconds to prepare an optical component forming film each having a film thickness of 1000 nm.
(§2) Then, tests for the refractive index and the transparency at a wavelength of 633 nm were carried out by using a vacuum ultraviolet with variable angle spectroscopic ellipsometer (model name: VUV-VASE) manufactured by J.A. Woollam Japan, and the refractive index and the transparency were evaluated.

[2] = Film heat resistance (visual defects after baking); set-up: key: A: No visual defects in the film; C: Visual defects in the film (including the loss of films); settings: film baked at 110° C. for 5 minutes
Description: as §1
The optical component forming film was baked at 110° C. for 5 minutes to evaluate the film heat resistance.

[3] = Refractive index of optical component forming film (spectroscopic ellipsometer); settings: wavelength 633 nm; 1000 nm film from 5% by mass composition, baked 110° C. 60 seconds
Description: as §1, §2

[4] = Solubility test in organic solvent (amount of dissolution); settings: amount of dissolution in propylene glycol monomethyl ether, 23° C., ultrasonic waves 30 minutes, visual observation
Description: With respect to the solubility of each compound in an organic solvent, the solubility of the compound in propylene glycol monomethyl ether was measured. The solubility was evaluated according to the following criteria, using the amount of dissolution in propylene glycol monomethyl ether. For the measurement of the amount of dissolution, the evaluation was carried out by precisely weighing the compound in a test tube at 23° C., […], applying ultrasonic waves for 30 minutes with an ultrasonic cleaning machine, visually observing the subsequent state of the liquid, and determining the concentration of the completely dissolved amount as the basis.

Row | SMILES | Evaluation of film heat resistance [2] | Solubility test [4] | Evaluation of transparency [1] | Evaluation of refractive index [3]
1 | Oc1ccc(CCOc2ccc3ccc4c(c3c2)C(c2ccc3ccccc3c2)c2c(ccc3ccc(OCCc5ccc(O)cc5)cc23)O4)cc1 [BiN-1-PE] | A | A (5.0% by mass≤amount of dissolution) | A (The absorption coefficient is less than 0.03.) | A (The refractive index is 1.75 or more.)
2 | C=C(C)C(=O)OCCC(N)C(=O)Oc1ccc2ccc3c(c2c1)C(c1ccc2ccccc2c1)c1c(ccc2ccc(OC(=O)C(N)CCOC(=O)C(=C)C)cc12)O3 (centres unmarked) [BiN-1-Ua] | A | A (5.0% by mass≤amount of dissolution) | A (The absorption coefficient is less than 0.03.) | B (The refractive index is 1.65 or more and less than 1.75.)
3 | Oc1cc2ccccc2c(C(c2ccc3ccccc3c2)c2c(O)c(O)cc3ccccc23)c1O [BiN-5U] | A | A (5.0% by mass≤amount of dissolution) | A (The absorption coefficient is less than 0.03.) | A (The refractive index is 1.75 or more.)
4 | c1ccc2cc(C3c4c(ccc5ccc(OCCOCC6CO6)cc45)Oc4ccc5ccc(OCCOCC6CO6)cc5c43)ccc2c1 (centres unmarked) [BiN-1-GE] | A | A (5.0% by mass≤amount of dissolution) | A (The absorption coefficient is less than 0.03.) | A (The refractive index is 1.75 or more.)
5 | C#CCOc1ccc2ccc3c(c2c1)C(c1ccc2ccccc2c1)c1c(ccc2ccc(OCC#C)cc12)O3 [BiN-1-Pr] | A | A (5.0% by mass≤amount of dissolution) | A (The absorption coefficient is less than 0.03.) | A (The refractive index is 1.75 or more.)
6 | C=Cc1ccc(COCCOc2ccc3ccc4c(c3c2)C(c2ccc3ccccc3c2)c2c(ccc3ccc(OCCOCc5ccc(C=C)cc5)cc23)O4)cc1 [BiN-1-SE] | A | A (5.0% by mass≤amount of dissolution) | A (The absorption coefficient is less than 0.03.) | A (The refractive index is 1.75 or more.)
7 | CC(C)(C)OC(=O)COc1ccc2c3c(ccc2c1)Oc1ccc2cc(OCC(=O)OC(C)(C)C)ccc2c1C3c1ccc2ccccc2c1 [BiN-3-MeBOC] | A | A (5.0% by mass≤amount of dissolution) | A (The absorption coefficient is less than 0.03.) | B (The refractive index is 1.65 or more and less than 1.75.)
8 | C=CCOc1ccc2c3c(ccc2c1)Oc1ccc2cc(OCC=C)ccc2c1C3c1ccc2ccccc2c1 [BiN-3-AL] | A | A (5.0% by mass≤amount of dissolution) | A (The absorption coefficient is less than 0.03.) | A (The refractive index is 1.75 or more.)
9 | Oc1ccc2c3c(ccc2c1)Oc1ccc2cc(O)ccc2c1C3c1ccc2ccccc2c1 [BiN-3] | A | A (5.0% by mass≤amount of dissolution) | A (The absorption coefficient is less than 0.03.) | A (The refractive index is 1.75 or more.)
10 | C=Cc1ccc(COc2ccc3ccc4c(c3c2)C(c2ccc3ccccc3c2)c2c(ccc3ccc(OCc5ccc(C=C)cc5)cc23)O4)cc1 [BiN-1-SX] | A | A (5.0% by mass≤amount of dissolution) | A (The absorption coefficient is less than 0.03.) | A (The refractive index is 1.75 or more.)
11 | Oc1ccc(Oc2ccc3ccc4c(c3c2)C(c2ccc3ccccc3c2)c2c(ccc3ccc(Oc5ccc(O)cc5)cc23)O4)cc1 [BiN-1-PX] | A | A (5.0% by mass≤amount of dissolution) | A (The absorption coefficient is less than 0.03.) | A (The refractive index is 1.75 or more.)
12 | Oc1ccc2c(C(c3ccc4ccccc4c3)c3c(O)ccc4cc(O)ccc34)c(O)ccc2c1 [BiN-3U] | A | A (5.0% by mass≤amount of dissolution) | A (The absorption coefficient is less than 0.03.) | A (The refractive index is 1.75 or more.)

The next lines start with results.

Row | Evaluation of film heat resistance [2] | Solubility test [4] | SMILES | Evaluation of transparency [1] | Evaluation of refractive index [3]
13 | A | A (5.0% by mass≤amount of dissolution) | Oc1ccc2ccc3c(c2c1)C(c1ccc2ccccc2c1)c1c(ccc2ccc(O)cc12)O3 [BiN-1] | A (The absorption coefficient is less than 0.03.) | A (The refractive index is 1.75 or more.)
14 | A | A (5.0% by mass≤amount of dissolution) | CC1(c2ccc3ccccc3c2)c2c(ccc3ccc(O)cc23)Oc2ccc3ccc(O)cc3c21 [BiN-4] | A (The absorption coefficient is less than 0.03.) | A (The refractive index is 1.75 or more.)
15 | A | A (5.0% by mass≤amount of dissolution) | C=C(C)C(=O)OCC(O)COc1ccc2ccc3c(c2c1)C(c1ccc2ccccc2c1)c1c(ccc2ccc(OCC(O)COC(=O)C(=C)C)cc12)O3 (centres unmarked) [BiN-1-Ea] | A (The absorption coefficient is less than 0.03.) | B (The refractive index is 1.65 or more and less than 1.75.)
16 | A | A (5.0% by mass≤amount of dissolution) | c1ccc2cc(C3c4c(ccc5ccc(OCC6CO6)cc45)Oc4ccc5ccc(OCC6CO6)cc5c43)ccc2c1 (centres unmarked) [BiN-1-G] | A (The absorption coefficient is less than 0.03.) | A (The refractive index is 1.75 or more.)
17 | A | A (5.0% by mass≤amount of dissolution) | Oc1ccc2ccc3c(c2c1)C(c1cccc2ccccc12)c1c(ccc2ccc(O)cc12)O3 [BiN-2] | A (The absorption coefficient is less than 0.03.) | A (The refractive index is 1.75 or more.)
18 | A | A (5.0% by mass≤amount of dissolution) | C=CC(=O)Oc1ccc2ccc3c(c2c1)C(c1ccc2ccccc2c1)c1c(ccc2ccc(OC(=O)C=C)cc12)O3 [BiN-1-Ac] | A (The absorption coefficient is less than 0.03.) | B (The refractive index is 1.65 or more and less than 1.75.)
19 | A | A (5.0% by mass≤amount of dissolution) | Oc1ccc2ccc(O)c(C(c3ccc4ccccc4c3)c3c(O)ccc4ccc(O)cc34)c2c1 [BiN-1U] | A (The absorption coefficient is less than 0.03.) | A (The refractive index is 1.75 or more.)
20 | A | A (5.0% by mass≤amount of dissolution) | OCCOc1ccc2ccc3c(c2c1)C(c1ccc2ccccc2c1)c1c(ccc2ccc(OCCO)cc12)O3 [BiN-1-E] | A (The absorption coefficient is less than 0.03.) | B (The refractive index is 1.65 or more and less than 1.75.)
